Reference: ChEMBL document CHEMBL5303573, “Mapping human microbiome drug metabolism by gut bacteria and their genes” (Nature, 2019)

Assays:
[1] = The drug is tested on Collinsella intestinalis strain: DSM13280 for biotransformation. The drug concentrations were measured before and after a 12-h incubation by liquid-chromatography-coupled mass spectrometry (LC–MS); conditions: 2 µM
[2] = The drug is tested on Alistipes indistinctus strain: DSM22520 for biotransformation. The drug concentrations were measured before and after a 12-h incubation by liquid-chromatography-coupled mass spectrometry (LC–MS); conditions: 2 µM
[3] = The drug is tested on Bacteroides coprophilus strain: DSM18228 for biotransformation. The drug concentrations were measured before and after a 12-h incubation by liquid-chromatography-coupled mass spectrometry (LC–MS); conditions: 2 µM
[4] = The drug is tested on Bacteroides fragilis strain: HMW610 for biotransformation. The drug concentrations were measured before and after a 12-h incubation by liquid-chromatography-coupled mass spectrometry (LC–MS); conditions: 2 µM
[5] = The drug is tested on Bacteroides fragilis strain: HMW615 for biotransformation. The drug concentrations were measured before and after a 12-h incubation by liquid-chromatography-coupled mass spectrometry (LC–MS); conditions: 2 µM
[6] = The drug is tested on Blautia luti strain: DSM14534 for biotransformation. The drug concentrations were measured before and after a 12-h incubation by liquid-chromatography-coupled mass spectrometry (LC–MS); type: ADME; design: dose 2 uM, timepoint 0 vs 12 hours; conditions: 2 µM
[7] = The drug is tested on Clostridium ramosum strain: DSM1402 for biotransformation. The drug concentrations were measured before and after a 12-h incubation by liquid-chromatography-coupled mass spectrometry (LC–MS); conditions: thomasclavelia ramosa, 2 µM
[8] = The drug is tested on Clostridium sporogenes strain: ATCC15579 for biotransformation. The drug concentrations were measured before and after a 12-h incubation by liquid-chromatography-coupled mass spectrometry (LC–MS); conditions: 2 µM
[9] = The drug is tested on Clostridium symbiosum strain: ATCC14940 for biotransformation. The drug concentrations were measured before and after a 12-h incubation by liquid-chromatography-coupled mass spectrometry (LC–MS); conditions: 2 µM
[10] = The drug is tested on Ruminococcus lactaris strain: ATCC29176 for biotransformation. The drug concentrations were measured before and after a 12-h incubation by liquid-chromatography-coupled mass spectrometry (LC–MS); conditions: 2 µM
[11] = The drug is tested on Ruminococcus torques strain: ATCC27756 for biotransformation. The drug concentrations were measured before and after a 12-h incubation by liquid-chromatography-coupled mass spectrometry (LC–MS); type: ADME; design: dose 2 uM, timepoint 0 vs 12 hours; conditions: 2 µM
[12] = The drug is tested on Subdoligranulum variabile strain: DSM15176 for biotransformation. The drug concentrations were measured before and after a 12-h incubation by liquid-chromatography-coupled mass spectrometry (LC–MS); conditions: 2 µM
[13] = The drug is tested on Enterobacter cancerogenus strain: ATCC35316 for biotransformation. The drug concentrations were measured before and after a 12-h incubation by liquid-chromatography-coupled mass spectrometry (LC–MS); conditions: 2 µM
[14] = anaerostipes sp., 12 h, 2 µM
Description: The drug is tested on Anaerostipes sp. strain: fecal isolate for biotransformation. The drug concentrations were measured before and after a 12-h incubation by liquid-chromatography-coupled mass spectrometry (LC–MS)

[15] = The drug is tested on Bacteroides dorei strain: DSM17855 for biotransformation. The drug concentrations were measured before and after a 12-h incubation by liquid-chromatography-coupled mass spectrometry (LC–MS); conditions: phocaeicola dorei, 2 µM
[16] = The drug is tested on Bacteroides fragilis strain: ATCC43859 for biotransformation. The drug concentrations were measured before and after a 12-h incubation by liquid-chromatography-coupled mass spectrometry (LC–MS); conditions: 2 µM
[17] = The drug is tested on Parabacteroides merdae strain: ATCC43184 for biotransformation. The drug concentrations were measured before and after a 12-h incubation by liquid-chromatography-coupled mass spectrometry (LC–MS); conditions: 2 µM
[18] = bacteroides fragilis, 12 h, 2 µM
Description: The drug is tested on Bacteroides fragilis strain: NCTC 9343 for biotransformation. The drug concentrations were measured before and after a 12-h incubation by liquid-chromatography-coupled mass spectrometry (LC–MS)

[19] = bacteroides fragilis, 12 h, 2 µM; remark: listed apart in the source
Description: The drug is tested on Bacteroides fragilis strain: 3397 (T10) for biotransformation. The drug concentrations were measured before and after a 12-h incubation by liquid-chromatography-coupled mass spectrometry (LC–MS)

Bacterial Biotransformation [1] | Bacterial Biotransformation [2] | Bacterial Biotransformation [3] | Bacterial Biotransformation [4] | Bacterial Biotransformation [5] | Bacterial Biotransformation [6] | Bacterial Biotransformation [7] | Bacterial Biotransformation [8] | Bacterial Biotransformation [9] | Bacterial Biotransformation [10] | Bacterial Biotransformation [11] | Bacterial Biotransformation [12] | Bacterial Biotransformation [13] | Bacterial Biotransformation [14] | Bacterial Biotransformation [15] | Bacterial Biotransformation [16] | Bacterial Biotransformation [17] | Bacterial Biotransformation [18] | Bacterial Biotransformation [19] | SMILES
Compound NOT metabolized | Compound NOT metabolized | Compound NOT metabolized | Compound NOT metabolized | Compound NOT metabolized | Compound NOT metabolized | Compound NOT metabolized | Compound NOT metabolized | Compound NOT metabolized | Compound NOT metabolized | Compound NOT metabolized | Compound metabolized | Compound NOT metabolized | Compound NOT metabolized | – | – | – | – | – | CCN(CC)CCNC(C(=O)OCCC(C)C)c1ccccc1.Cl.Cl (centres undefined)
Compound NOT metabolized | Compound NOT metabolized | – | Compound NOT metabolized | Compound NOT metabolized | Compound NOT metabolized | – | Compound NOT metabolized | Compound NOT metabolized | Compound metabolized | Compound NOT metabolized | Compound NOT metabolized | Compound NOT metabolized | Compound NOT metabolized | Compound metabolized | Compound metabolized | Compound NOT metabolized | Compound NOT metabolized | Compound metabolized | Cc1nc(-c2ccc(OCC(C)C)c(C#N)c2)sc1C(=O)O [FEBUXOSTAT]
Compound NOT metabolized | Compound NOT metabolized | – | – | Compound metabolized | Compound NOT metabolized | – | – | Compound NOT metabolized | – | Compound NOT metabolized | Compound NOT metabolized | – | Compound NOT metabolized | Compound metabolized | Compound metabolized | Compound metabolized | Compound metabolized | Compound metabolized | COC1=CC(=O)C[C@@H](C)[C@]12Oc1c(Cl)c(OC)cc(OC)c1C2=O [GRISEOFULVIN]
Compound NOT metabolized | Compound NOT metabolized | – | Compound NOT metabolized | – | Compound NOT metabolized | Compound NOT metabolized | Compound NOT metabolized | Compound NOT metabolized | Compound NOT metabolized | Compound NOT metabolized | Compound NOT metabolized | Compound NOT metabolized | Compound NOT metabolized | Compound NOT metabolized | Compound NOT metabolized | Compound NOT metabolized | Compound NOT metabolized | Compound NOT metabolized | CN[C@H]1CC[C@@H](c2ccc(Cl)c(Cl)c2)c2ccccc21 [SERTRALINE]
Compound NOT metabolized | Compound NOT metabolized | – | – | Compound NOT metabolized | Compound NOT metabolized | Compound NOT metabolized | Compound NOT metabolized | Compound NOT metabolized | Compound NOT metabolized | Compound NOT metabolized | Compound NOT metabolized | Compound NOT metabolized | Compound NOT metabolized | Compound NOT metabolized | – | – | – | – | Nc1c2c(nc3ccccc13)CCCC2 [TACRINE]
Compound NOT metabolized | Compound NOT metabolized | – | Compound NOT metabolized | Compound NOT metabolized | Compound NOT metabolized | Compound NOT metabolized | Compound NOT metabolized | Compound NOT metabolized | Compound NOT metabolized | – | Compound NOT metabolized | – | Compound NOT metabolized | Compound NOT metabolized | Compound NOT metabolized | Compound NOT metabolized | – | Compound NOT metabolized | CN1C(C(=O)Nc2ccccn2)=C(O)c2sccc2S1(=O)=O [TENOXICAM]
Compound NOT metabolized | – | Compound NOT metabolized | Compound NOT metabolized | Compound NOT metabolized | Compound NOT metabolized | – | Compound NOT metabolized | Compound NOT metabolized | Compound NOT metabolized | Compound NOT metabolized | Compound NOT metabolized | Compound NOT metabolized | Compound NOT metabolized | Compound NOT metabolized | Compound NOT metabolized | Compound NOT metabolized | Compound NOT metabolized | Compound NOT metabolized | O=c1n(CCCN2CCN(c3cccc(Cl)c3)CC2)nc2ccccn12 [TRAZODONE]
– | Compound NOT metabolized | Compound NOT metabolized | Compound NOT metabolized | Compound NOT metabolized | Compound NOT metabolized | Compound NOT metabolized | Compound metabolized | Compound NOT metabolized | Compound NOT metabolized | Compound NOT metabolized | Compound NOT metabolized | Compound NOT metabolized | – | Compound metabolized | – | Compound NOT metabolized | – | Compound metabolized | Cc1cn([C@H]2C[C@H](N=[N+]=[N-])[C@@H](CO)O2)c(=O)[nH]c1=O [ZIDOVUDINE]

SMILES | Bacterial Biotransformation [1] | Bacterial Biotransformation [2] | Bacterial Biotransformation [3] | Bacterial Biotransformation [4] | Bacterial Biotransformation [5] | Bacterial Biotransformation [6] | Bacterial Biotransformation [7] | Bacterial Biotransformation [8] | Bacterial Biotransformation [9] | Bacterial Biotransformation [10] | Bacterial Biotransformation [11] | Bacterial Biotransformation [12] | Bacterial Biotransformation [13] | Bacterial Biotransformation [14] | Bacterial Biotransformation [15] | Bacterial Biotransformation [16] | Bacterial Biotransformation [17] | Bacterial Biotransformation [18] | Bacterial Biotransformation [19]
O=C1CC2(CCCC2)CC(=O)N1CCCCN1CCN(c2ncccn2)CC1 [BUSPIRONE] | Compound NOT metabolized | – | Compound NOT metabolized | Compound NOT metabolized | Compound NOT metabolized | Compound NOT metabolized | Compound NOT metabolized | Compound NOT metabolized | Compound NOT metabolized | Compound NOT metabolized | Compound NOT metabolized | Compound NOT metabolized | – | Compound NOT metabolized | Compound NOT metabolized | Compound NOT metabolized | Compound NOT metabolized | Compound NOT metabolized | Compound NOT metabolized
CC(=O)CC(c1ccccc1)c1c(O)c2ccccc2oc1=O (centres undefined) [WARFARIN] | Compound NOT metabolized | – | Compound NOT metabolized | – | Compound metabolized | Compound NOT metabolized | Compound NOT metabolized | – | Compound NOT metabolized | Compound NOT metabolized | Compound NOT metabolized | Compound NOT metabolized | Compound NOT metabolized | Compound NOT metabolized | Compound NOT metabolized | Compound metabolized | Compound NOT metabolized | Compound NOT metabolized | Compound NOT metabolized
